The text below walks through data of patent US11851410B2, “Sensors for detection of negatively charged phosphate-containing membranes and membrane components” (THE GOVERNING COUNCIL OF THE UNIVERSITY OF TORONTO, priority 2017, dated 2023).

Molecules are shown by their SMILES.

Experiment [1] has as its system POPA (PA) negatively charged vesicles. As to the kind of experiment: Serial dilution vesicle fluorescence intensity experiments, PA vesicles. The experiment is classed as binding. As to conditions: for ΔΔFI: PA vesicles, sensor 25 μM (PSVue™380 1 μM), 50 mM HEPES, 5% DMSO, pH 7.5. From the text:
(§1) The following equations were used for the calculations: […]

The test system of experiment [2] is TOCL (CL) negatively charged vesicles. As to the kind of experiment: Serial dilution vesicle fluorescence intensity experiments, CL vesicles. The experiment is classed as binding. Particulars: sensor 25 μM (PSVue™380 1 μM), 50 mM HEPES, 5% DMSO, pH 7.5. Further details: ΔΔFI: unit not given here.
Source text: as §1

Experiment [3] relates to camptothecin treated MOLM-13 cells. The experiment is described as follows: Apoptosis detection by flow cytometry. The experiment is classed as cell-based. As to conditions: camptothecin 10 μM, 7 hrs; I-3 50 μM, PSVue™380 90.9 μM. As to the method: MOLM-13 cells were cultured in Roswell Park Memorial Institute (RPMI)-1640 Medium supplemented with 10% FCS and 1% antibiotic/antimycotic (Gibco, cat. 15240062).
MOLM-13 cells were cultured to a density of 5.0×10^5 cells/mL in regular media and transferred to 6-well tissue culture treated plates (1.0×10^6 cells/well). Treated Cells. Camptothecin (100 μL of 210 μM camptothecin in media) was added to a final concentration of 10 μM (1% DMSO final). Untreated Cells. DMSO Vehicle (100 μL DMSO in media) was added (1% DMSO final). All cells were then incubated at 37° C. for 7 hrs. […] Cell samples were then treated simultaneously with either 1) exemplary compound I-3 (in HEPES buffer, final concentration of 50 μM), and propidium iodide (0.02 μg/μL) or 2) PSVue™380 (in HEPES buffer, final concentration of 90.9 μM as previously reported^39) and propidium iodide (0.02 μg/μL). Samples were then incubated for 15 min away from light at 37° C. and were then analyzed by flow cytometry (CytoFLEX S, BeckmanCoulter) using the near UV laser (exc: 375 nm, emi: 450/45 nm) and blue laser (exc: 488 nm, emi: 585/42 nm). Gates were set off of single stain samples.

The subject of experiment [4] is DOPS (PS) negatively charged vesicles. As to the kind of experiment: Serial dilution vesicle fluorescence intensity experiments, PS vesicles. The format is binding. Further details: ΔΔFI: unit not given here. As to conditions: for ΔΔFI: sensor 25 μM (PSVue™380 1 μM), 50 mM HEPES, 5% DMSO, pH 7.5.
Experiment [5] shares this test system. The description is as above. The experiment is classed as binding. Also on record: ΔΔFI: unit not given here. As to conditions: for ΔΔFI: sensor 25 μM (PSVue™380 1 μM), 50 mM HEPES, 5% DMSO, pH 7.5.
Source text: as §1
It is estimated that a mammalian cell membrane is composed of 10% PS, with the majority located on the inner leaflet in the healthy state. However, during the early stages of apoptosis, this asymmetry is lost and PS becomes symmetrically distributed resulting in ˜5% of PS externalized to the outer leaflet. To address if compounds of this application could potentially be used for the detection of the PS externalization event during apoptosis, the exemplary sensors were screened against PC vesicles containing biologically-relevant levels of PS ([…]; assuming that approximately half of the lipid head groups will be exposed to the interior of the vesicle). The resulting ΔΔFI for vesicle concentrations up to 40 μM are presented in FIG. 7 and Table 1 (ΔΔFI for vesicle concentrations up to 200 μM is presented in FIG. 4).
This is another data set of the same source.

Experiment [6] relates to POPG (PG) negatively charged vesicles. As to the kind of experiment: Serial dilution vesicle fluorescence intensity experiments, PG vesicles. The experiment is classed as binding. As to conditions: sensor 25 μM (PSVue™380 1 μM), 50 mM HEPES, 5% DMSO, pH 7.5.
Source text: as §1

The subject of experiment [7] is Gram-positive bacteria (B. subtilis, B. megaterium, M. luteus, S. epidermidis). Particulars: sensor 10 μM; λex/em 350/476 nm.
Protocol: Bacteria samples were titrated from 10^8-10^10 cells/mL in a large-volume 12 well plate. Bacteria samples were added to black 384-well plates in triplicate.
Experiment [8] deals with POPE (PE) zwitterionic vesicles. The experiment is described as follows: Serial dilution vesicle fluorescence intensity experiments, PE vesicles. The experiment is classed as binding. Particulars: sensor 25 μM (PSVue™380 1 μM), 50 mM HEPES, 5% DMSO, pH 7.5.
Source text: as §1

For the molecule `c1cc2ccc3ccc(CN4CCCNCCNCCCNCC4)c4ccc(c1)c2c34` [I-3], the ΔΔFI worked out at 7.7 in experiment [1] (5 μM vesicles); 23.2 in experiment [1] (20 μM vesicles); 2.4 in experiment [2] (33% CL vesicles, 5 μM vesicles); 6 in experiment [2] (33% CL vesicles, 20 μM vesicles); 4.1 in experiment [2] (CL vesicles (50%), 5 μM vesicles); 10.2 in experiment [2] (CL vesicles (50%), 20 μM vesicles). The ΔΔFI is reported as 6.5 in experiment [4] (75% PS vesicles, 5 μM vesicles); 15.6 in experiment [4] (75% PS vesicles, 20 μM vesicles); 3.5 in experiment [4] (PS vesicles (50%), 5 μM vesicles); 9.8 in experiment [4] (PS vesicles (50%), 20 μM vesicles); 1.8 in experiment [5] (5% PS vesicles, 5 μM vesicles); 3.5 in experiment [5] (5% PS vesicles, 20 μM vesicles). Besides, the ΔΔFI in experiment [5] (25% PS vesicles, 5 μM vesicles) was 2.2; in experiment [5] (25% PS vesicles, 20 μM vesicles), 5.3; in experiment [6] (5 μM vesicles), 2.4; in experiment [6] (20 μM vesicles) it was 6.2; in experiment [8] (5 μM vesicles), 1; in experiment [8] (20 μM vesicles) it was 1. Further, the “sensing PA compared to PSVue™380” value in experiment [1] (Table 1 comparison) was “superior”. The “ΔΔFI for PA vesicles (FIG. 4)” value in experiment [1] (sensor 25 μM, vesicles 0-200 μM) was about 25. The “detection of early apoptotic cells (propidium iodide co-stain)” value in experiment [3] is listed as “detects a population of cells, undetected by the dead cell stain propidium iodide”. Moreover, the “sensitivity compared to PSVue™380, 5 μM PS vesicles” value in experiment [4] (5 μM PS vesicles) was “comparable”. For the same molecule, the “detection of PC vesicles containing 5 and 25% PS” value in experiment [5] (5 and 25% PS, corresponding to 2.5 and 12.5% of PS exposed to solution) was “efficiently detected”. In addition, the “detection of Gram-positive bacteria with a fluorometer in bulk solution” value in experiment [7] is given as “can detect Gram-positive bacteria”.
